Data as given in ChEMBL document CHEMBL1212711, “Mechanistic and functional insights into fatty acid activation in Mycobacterium tuberculosis” (Nat Chem Biol, 2009).
The source made the active and inactive calls. The calls are words filed in the database; no cut-off is given here.

Assays:
[1] = tested on: Mycobacterium tuberculosis H37Rv; assay: Activity at Mycobacterium tuberculosis H37Rv FACL19 i mutant containing FAAL28 (342-372) residues instead of FACL6 (362-376) residues assessed as acy-CoA formation by radio-TLC assay
[2] = tested on: Mycobacterium tuberculosis H37Rv; assay: Activity at Mycobacterium tuberculosis H37Rv FACL19 AS mutant containing 15 amino acid stretch of alanine and serine residues assessed as acy-CoA formation by radio-TLC assay
[3] = tested on: Mycobacterium tuberculosis H37Rv; assay: Activity at Mycobacterium tuberculosis H37Rv FAAL28 deletion mutant assessed as conversion of lauroyl-AMP to lauryl-CoA by radio-TLC assay
[4] = tested on: Mycobacterium tuberculosis H37Rv; assay: Selectivity of Mycobacterium tuberculosis H37Rv FAAL28 deletion mutant over wild type FACL1

CC(C)(COP(=O)(O)OP(=O)(O)OC[C@H]1O[C@@H](n2cnc3c(N)ncnc32)[C@H](O)[C@@H]1OP(=O)(O)O)[C@@H](O)C(=O)NCCC(=O)NCCS [COENZYME_A]
Activity [1]: inactive
Activity [2]: inactive
kcat [3]: 19500 s⁻¹
fold change (FC) [4]: 10
